# Reference: patent US11931374B2, “Adenosine receptor modulators for the treatment of circadian rhythm disorders” (OXFORD UNIVERSITY INNOVATION LIMITED, priority 2016, dated 2024)
# Legend:
# [1] = tested on: Per2::Luc SCN slice cultures; assay: Per2::Luc SCN slice culture; assay type: cell-based, mice; conditions: isolated Per2::Luc SCN slice cultures
# Excerpt: SCN Tissue Collection: Animals were housed under a 12:12 LD cycle for 2 weeks with food and water ad libitum. Animals then received either a drug injection with a alteration in the light dark cycle as described in the experiment and at set points following drug administration were sacrificed by cervical dislocation. Sham-treated mice not given a light pulse were dissected at each time point. Brains were removed and placed into a brain matrix (Kent Scientific, Torrington CT, USA). Per2::Luc transgenic animals (as reported in Yoo et al, Proc Natl Acad Sci USA. 2004 Apr. 13; 101(15):5339-46) were obtained from Prof Joseph Takahashi, Northwestern University.
# For SCN slice culture: The brain was gently cut into a cube preserving the integrity of the SCN and cut into […] slices in ice-cold oxygenated Hanks Balanced Salt Solution containing 100 nM MK801 (Sigma-Aldrich). The SCN was microdissected and transferred to membrane filter (Millicell Cell Culture Insert, 30 mm, hydrophilic PTFE, 0.4 μm, Millipore) and cultured in 300 uL DMEM prepared as detailed in the Per2::Luc Assay.
# [2] = tested on: C57Bl/6 mice; assay: Phase shifting of circadian activity in response to a light pulse with drug; assay type: in vivo; conditions: light at CT16
# Experimental: Animals were maintained in a 12 h light (white) 12 h dark (grey) cycle and vehicle was administered just before a 30 min 400 lux light pulse (white bar) at time CT 22 (or 10 hours after lights off). All light cues were then removed to allow the animals free running clock to express. A gap in the lines on the day after the light pulse was administered indicates a phase shift.
# Animals were maintained in a 12 h light (white) 12 h dark (grey) cycle and IB-MECA (1 mg/kg) was administered just before a 30 min 400 lux light pulse (white bar) at time CT 22 (or 10 hours after lights off).
# Animals were housed under a reversed 12:12 LD cycle (400 lux from white LED lamps) with food and water ad libitum. For phase-shifting studies, C57Bl/6 mice were maintained on running wheels in light tight chambers on a 12:12 LD cycle (400 lux from white LED lamps) and injected with drug at the indicated time points. The drugs were formulated in a vehicle consisting of 5% Koliphor-HS15 (Sigma-Aldrich, UK) 5% Cyclodextran (Sigma-Aldrich, UK) in 0.9% saline. […] Where measuring phase-shifting, the mice were then placed in DD and allowed to free run for 14 days in DD, running wheel activity data was collected and analysed on Clocklab (Actimetrics, Wilmette, IL). […]
# [3] = tested on: Per2::Luc U2OS cells; assay: Per2::Luc cell based circadian assay; conditions: Per2::Luc U2OS cells, dose response
# Experimental: U2OS cells stably transfected with a Per2::Luc reporter were cultured in DMEM supplemented with 10% FBS. For siRNA- and drug-based experiments, cells were seeded at 5,000 per well into white 384 well plates and transfected with 20 nM siRNA the next day. 2 days later, the cells were synchronized with 100 nM dexamethasone and the medium was replaced with phenol-red free DMEM supplemented with B-27 and 100 µM luciferin potassium salt, requisite drugs formulated in DMSO as a 1000× stock was added, and then sealed. Per2::Luc rhythms were recorded from a BMG Labtech Fluostar Omega plate reader maintained at 36° C. and readings taken from each well every hour. Data were then analysed using either Multicycle or Brass rhythm analysis software.
# Period2::Luciferase (Per2::Luc) stable U2OS transfects were cultured, as described above. A Greiner Bio-One 384 Well Plate (Polystyrene, F-bottom), was then seeded at 6000 cells per 50 μl well. Following a 24 hour period, the cells were treated with 0.1% dexamethasone, a glucocorticoid hormone analogue known to reset intracellular circadian rhythms, for 1 hour. Subsequently, the dexamethasone-containing medium was removed, the cells were washed with PBS and luciferin and test drug containing medium was added. The cells were then assayed for luminescence over a period of 96 hours in the BMG FLUOstar OPTIMA Microplate Reader to observe the periodicity and amplitude of the luminescence values.
# [4] = tested on: Per1; assay: Per1 mRNA levels in U2OS cells by qPCR; assay type: cell-based
# Experimental: Total RNA was extracted using the microRNeasy column method (Qiagen, Hilden, Germany). Quality and quantity of RNA were measured using an Agilent Bioanalyzer and a Nanodrop1000 (Thermo Fisher Scientific, Waltham, MA USA), respectively.
# RNA samples were prepared as described for microarray hybridisation. cDNA was synthesized with a qScript cDNA synthesis kit (Quanta Biosciences, Gaithersburg, MD), and quantitative PCR (qPCR) was conducted with Sybr green I and an SDS7700 thermal cycler (Applied Biosystems, Foster City, CA). Relative quantification of transcript levels was done as described previously (Peirson et al., Nucleic Acids Res. 2003 Jul. 15; 31(14):e73.). The geometric mean of a minimum of three housekeeping genes was used for normalization (Gapdh, ActB, GusB and Rps9 for example).
# Cells from the U2OS (HTB-96) line were obtained, tested and identified. The cells were cultured in T-75 flasks, in Dulbecco's modified Eagle medium (DMEM) supplemented with 10% foetal bovine serum (FBS) and 1% penicillin-streptomycin (P/S) at 37° C. in a humidified atmosphere at 5% CO2. The cells were subcultured every 2 to 4 days in a 1:2 to 1:6 ratio, in accordance with the ATCC recommendations. The cells were counted using a haemocytometer, and their viability in a culture was maintained at above 95%, measured with a Presto Blue exclusion assay according to the manufacturer's specifications. Cells were transfected with siRNAs (typically at 50 nM concentrations, sequences as previously listed), the CRE::Luc (pGL4.29[luc2P/CRE/Hygro] Vector, encoding Luc2P […] under the control of a strong cAMP response element (CRE) promoter containing 3 CRE elements within its sequence; Promega) reporter vector or cAMP-GLOSensor plasmid (Promega) as per manufacturer's instructions using either Lipofectamine RNAimax (Invitrogen) or Lipofectamine3000 (Invitrogen).
structure (smiles),measurement,setting,value
"Nc1nc(-c2ccccc2)c2c(n1)-c1cc(OCCN3CCOCC3)ccc1C2=O [JNJ40255293, 2-amino-8-[2-(4-morpholinyl)ethoxy]-4-phenyl-5H-indeno[1,2-d]pyrimidin-5-one]",period length,[1],increased period length
same,phase-shifts in response to light,[2],enhances phase-shifts in response to light at CT16
same,circadian period length,[3],increased circadian period length in a dose dependent manner
same,Per1 transcription,[4]; 4 h post-drug treatment,significantly increased
same,Per1 mRNA,"[4]; U2OS cell cultures, 10 uM",Robust increases
same,Per1 mRNA levels,"[4]; U2OS cells, 30 uM",elevated
same,Per1 mRNA levels / expression,"[4]; U2OS cells, qPCR, concentration not given",induce the expression of Per1 and Per2
